Assay results from patent publication US6878700B1, “Cell adhesion-inhibiting antiinflammatory and immune-suppressive compounds” (Abbott Laboratories, priority 1998, dated 2005).
Where a name gives a salt, the structure may show the parent alone. One block for each molecule: values may come before it.

Experiments:
[1] = Water solubility of the isolated potassium salt; type: physicochemical; details: solid obtained from the acid with KOH in MeOH (potassium salt)
Procedure: The compound of Example 137 was hydrolyzed using an excess of aqueous 10% NaOH in methanol, stirring overnight. The reaction mixture was concentrated in vacuo, water was added, and the solution was extracted with ether. The mixture was acidified; the resultant solid was collected by filtration and dried overnight in a vacuum oven, giving a white solid, m.p. 166-171C. ^1H-NMR (DMSO 300 MHz) δ 1.17 (t, J=7 Hz, 3H), broad peaks totaling 9 protons at 1.32-1.48, 1.51-1.78, 1.90-2.04, 2.25-2.50, 2.80-2.90, 2.95-3.17, 3.45-3.51, 3.95-4.19, 4.41-4.51, 4.06 (q, J=7 Hz, 1H), 6.80 (d, J=9 Hz, 1H), 7.01 (t, J=7 Hz, 1H), 7.15 (d, J=8 Hz, 1H), 7.26-7.40 (m, 2H), 7.40-7.48 (m, 1H), 7.51 (dd, J=9 Hz, 2 Hz, 1H), 7.99 (d, J=9 Hz, 1H). Anal. Calcd. for C23H24ClNO4S: C, 61.94; H, 5.42; N, 3.14. Found: C, 61.75; H, 5.65; N, 3.15. The resultant acid (303 mg, 0.631 mmol) was dissolved in 3 mL MeOH. A KOH solution (38 mg, 0.595 mmol, of 87.6% KOH) in 1 ml MeOH was added. The resulting solution was concentrated in vacuo, and 5 mL ether was added. The mixture was stirred for one hour to form a powder, which was filtered and dried in the vacuum oven at 60C to yield 307 mg of a solid, water soluble product. […]

melting point: 73 to 75 °C
SMILES: CCOC(=O)C1CCCN(C(=O)/C=C/c2ccc(Sc3ccc4c(c3)OCCO4)c([N+](=O)[O-])c2)C1 (stereo not shown) [Example 197, (Benzodioxan-6-yl)[2-nitro-4-(E-((3-carboethoxypiperidin-1-yl)carbonyl)ethenyl)phenyl]sulfide]

melting point: 74 to 75 °C
SMILES: CCOC(=O)C1CCCCN1C(=O)/C=C/c1ccc(Sc2ccc3c(c2)OCCO3)c([N+](=O)[O-])c1 (stereo not shown) [Example 203, (Benzodioxan-6-yl)[2-nitro-4-(E-((2-carboethoxypiperidin-1-yl)carbonyl)ethenyl)phenyl]sulfide]

melting point: 165 °C (dec.)
SMILES: O=C(O)C1CCCCN1C(=O)/C=C/c1ccc(Sc2ccc3c(c2)OCCO3)c([N+](=O)[O-])c1 (stereo not shown) [Example 220, (Benzodioxan-6-yl)[2-nitro-4-(E-((2-carboxypiperidin-1-yl)carbonyl)ethenyl)phenyl]sulfide]

melting point: 70 to 72 °C
SMILES: COC(=O)C1CNCCN1C(=O)/C=C/c1ccc(Sc2ccc3c(c2)OCCO3)c(C(F)(F)F)c1 (stereo not shown) [Example 255, (Benzodioxan-6-yl)[2-trifluoromethyl-4-(E-((2-carbomethoxypiperazin-1-yl)carbonyl)ethenyl)phenyl]sulfide]

melting point: 88 °C (dec.)
SMILES: O=C(O)C1CCN(C(=O)/C=C/c2ccc(Sc3ccc4c(c3)OCCO4)c(C(F)(F)F)c2)CC1 [Example 263, (Benzodioxan-6-yl)[2-trifluoromethyl-4-(E-((4-carboxypiperidin-1-yl)carbonyl)ethenyl)phenyl]sulfide]

melting point: 90 °C (dec.)
SMILES: O=C(O)C1CCCCN1C(=O)/C=C/c1ccc(Sc2ccc3c(c2)OCCO3)c(C(F)(F)F)c1 (stereo not shown) [Example 264, (Benzodioxan-6-yl)[2-trifluoromethyl-4-(E-((2-carboxypiperidin-1-yl)carbonyl)ethenyl)phenyl]sulfide]

melting point: 56 °C (dec.)
SMILES: COC(=O)C1CN(C(=O)/C=C/c2ccc(Sc3ccc4c(c3)OCCO4)c(C(F)(F)F)c2)CCN1C(=O)OC (stereo not shown) [Example 269, (Benzodioxan-6-yl)[2-trifluoromethyl-4-(E-((3-carbomethoxy-4-methoxycarbonylpiperazin-1-yl)carbonyl)ethenyl)phenyl]sulfide]

melting point: 102 °C (dec.)
SMILES: COC(=O)N1CCN(C(=O)/C=C/c2ccc(Sc3ccc4c(c3)OCCO4)c(C(F)(F)F)c2)C(C(=O)O)C1 (stereo not shown) [Example 271, (Benzodioxan-6-yl)[2-trifluoromethyl-4-(E-((2-carboxy-4-methoxycarbonylpiperazin-1-yl)carbonyl)ethenyl)phenyl]sulfide]

More lines, now with the values behind:

SMILES: O=C(O)CN1CCN(C(=O)/C=C/c2ccc(Sc3ccc4c(c3)OCCO4)c([N+](=O)[O-])c2)CC1 (as salt: salt) [Example 221, (Benzodioxan-6-yl)[2-nitro-4-(E-((4-carboxymethylpiperazin-1-yl)carbonyl)ethenyl)phenyl]sulfide]
melting point: 120 °C (dec.)

SMILES: CCOc1ccccc1Sc1ccc(/C=C/C(=O)N2CCCC(C(=O)O)C2)cc1Cl (stereo not shown) [Example 155, (2-Ethoxyphenyl)-[2-chloro-4-(E-[(3-carboxypiperidin-1-yl)carbonyl]ethenyl)phenyl]sulfide]
solubility in water [1]: water soluble
melting point: 166 to 171 °C

SMILES: CCOc1ccccc1Sc1ccc(/C=C/C(=O)N2CCCCC2C(=O)O)cc1Cl (stereo not shown) [Example 158, (2-Ethoxyphenyl)-[2-chloro-4-(E-[(2-carboxypiperidin-1-yl)carbonyl]ethenyl)phenyl]sulfide]
melting point: 170 to 171 °C

SMILES: CC(C)(C)OC(=O)N1CCN(C(=O)/C=C/c2ccc(Sc3ccc4c(c3)OCCO4)c([N+](=O)[O-])c2)CC1 [Example 205, (Benzodioxan-6-yl)[2-nitro-4-(E-((4-tert-butoxycarbonylpiperazin-1-yl)carbonyl)ethenyl)phenyl]sulfide]
melting point: 165 to 167 °C

SMILES: COC(=O)C1CN(C(=O)OC(C)(C)C)CCN1C(=O)/C=C/c1ccc(Sc2ccc3c(c2)OCCO3)c(C(F)(F)F)c1 (stereo not shown) [Example 253, (Benzodioxan-6-yl)[2-trifluoromethyl-4-(E-((2-carbomethoxy-4-tert-butoxycarbonylpiperazin-1-yl)carbonyl)ethenyl)phenyl]sulfide]
melting point: 85 to 87 °C

SMILES: CCOc1ccccc1Sc1ccc(/C=C/C(=O)N2CCCC(C(=O)O)C2)c(Cl)c1Cl (stereo not shown) [Example 343]
solubility in water [1]: water-soluble

SMILES: Nc1ccccc1Sc1ccc(/C=C/C(=O)N2CCOCC2)c(Cl)c1Cl [Example 410, (2-Aminophenyl)[2,3-dichloro-4-(E-((4-morpholinyl)carbonyl)ethenyl)phenyl]sulfide]
melting point: 230 to 240 °C (dec.)
